Laboratory results from ChEMBL document CHEMBL1157330, “Diplobifuranylones A and B, 5'-monosubstituted tetrahydro-2H-bifuranyl-5-ones produced by Diplodia corticola, a fungus pathogen of cork oak” (J Nat Prod, 2006).

Tested on: Solanum lycopersicum
Experiment: Phytotoxicity against Lycopersicon esculentum L. var. Marmande at 0.05 to 0.1 mg/mL by tomato cutting assay
Format: organism-based
Settings: in vivo

Compound: C[C@H](O)[C@@H]1C=CC(C2CCC(=O)O2)O1 (some centres not stated) [DIPLOBIFURANYLONE A]
- Activity: Non-toxic

Compound: C[C@H](O)[C@H]1C=CC(C2CCC(=O)O2)O1 (some centres not stated) [DIPLOBIFURANYLONE B]
- Activity: Non-toxic
